Measured values as given in the CheMixHub viscosity set.
± gives the uncertainty stated by the source.

Assay: xn = mol fraction of the nth substance listed

CCCCOCCOCCO + ClC(Cl)(Cl)Cl
298.15 K, 101.33 kPa
Details	viscosity [mPa·s]
x1 = 0.02	0.948 ± 0.024
x1 = 0.038	0.989 ± 0.025
x1 = 0.0629	1.05 ± 0.026
x1 = 0.0892	1.14 ± 0.028
x1 = 0.1363	1.29 ± 0.032
x1 = 0.18	1.442 ± 0.035
x1 = 0.2249	1.63 ± 0.039
x1 = 0.2644	1.796 ± 0.043
x1 = 0.3052	1.974 ± 0.047
x1 = 0.4307	2.594 ± 0.06
x1 = 0.4809	2.841 ± 0.065
x1 = 0.5267	3.065 ± 0.07
x1 = 0.5721	3.292 ± 0.075
x1 = 0.6126	3.489 ± 0.079
x1 = 0.6679	3.769 ± 0.085
x1 = 0.7225	4.032 ± 0.091
x1 = 0.7669	4.227 ± 0.095
x1 = 0.8132	4.438 ± 0.099
x1 = 0.8674	4.688 ± 0.11
x1 = 0.9149	4.885 ± 0.11
x1 = 0.9436	5.01 ± 0.11
x1 = 0.9724	5.074 ± 0.11

Cc1ccccc1N + ClC(Cl)(Cl)Cl
viscosity [mPa·s], 100 kPa
Details	x2 = 0.0901	x2 = 0.1916	x2 = 0.2917	x2 = 0.3903	x2 = 0.4988	x2 = 0.6089	x2 = 0.6981	x2 = 0.7941	x2 = 0.8847
298.15 K	3.473 ± 0.074	3.194 ± 0.068	2.917 ± 0.062	2.642 ± 0.056	2.337 ± 0.05	2.026 ± 0.043	1.772 ± 0.038	1.497 ± 0.032	1.235 ± 0.026
303.15 K	3.049 ± 0.065	2.812 ± 0.06	2.575 ± 0.055	2.34 ± 0.05	2.079 ± 0.044	1.812 ± 0.039	1.593 ± 0.034	1.356 ± 0.029	1.13 ± 0.024
308.15 K	2.65 ± 0.057	2.452 ± 0.053	2.254 ± 0.048	2.056 ± 0.044	1.836 ± 0.039	1.611 ± 0.034	1.426 ± 0.03	1.224 ± 0.026	1.032 ± 0.022
313.15 K	2.34 ± 0.05	2.172 ± 0.047	2.003 ± 0.043	1.834 ± 0.039	1.646 ± 0.035	1.452 ± 0.031	1.292 ± 0.027	1.118 ± 0.024	0.951 ± 0.02
318.15 K	2.033 ± 0.044	1.895 ± 0.041	1.755 ± 0.038	1.616 ± 0.035	1.459 ± 0.031	1.296 ± 0.028	1.162 ± 0.025	1.016 ± 0.022	0.874 ± 0.019

Nc1ccccc1Cl + ClC(Cl)(Cl)Cl
viscosity [mPa·s], 100 kPa
Details	x2 = 0.1011	x2 = 0.1916	x2 = 0.2901	x2 = 0.3811	x2 = 0.4923	x2 = 0.5989	x2 = 0.6911	x2 = 0.7741	x2 = 0.8897
298.15 K	3.882 ± 0.082	3.589 ± 0.076	3.268 ± 0.069	2.97 ± 0.063	2.604 ± 0.055	2.25 ± 0.047	1.942 ± 0.041	1.664 ± 0.035	1.273 ± 0.027
303.15 K	3.532 ± 0.075	3.269 ± 0.069	2.981 ± 0.063	2.713 ± 0.057	2.382 ± 0.05	2.063 ± 0.044	1.785 ± 0.038	1.533 ± 0.032	1.179 ± 0.025
308.15 K	3.158 ± 0.067	2.927 ± 0.062	2.675 ± 0.057	2.439 ± 0.052	2.149 ± 0.046	1.868 ± 0.04	1.622 ± 0.034	1.4 ± 0.03	1.086 ± 0.023
313.15 K	2.837 ± 0.06	2.634 ± 0.056	2.411 ± 0.051	2.203 ± 0.047	1.947 ± 0.041	1.699 ± 0.036	1.482 ± 0.031	1.284 ± 0.027	1.005 ± 0.021
318.15 K	2.566 ± 0.054	2.387 ± 0.051	2.189 ± 0.046	2.004 ± 0.042	1.776 ± 0.038	1.554 ± 0.033	1.361 ± 0.029	1.185 ± 0.025	0.934 ± 0.02

CCCCOCCOCCO + ClC(Cl)=C(Cl)Cl
298.15 K, 101.33 kPa
Details	viscosity [mPa·s]
x1 = 0.0092	0.859 ± 0.009
x1 = 0.0253	0.883 ± 0.009
x1 = 0.0385	0.91 ± 0.009
x1 = 0.0481	0.929 ± 0.009
x1 = 0.0583	0.95 ± 0.009
x1 = 0.0816	1.001 ± 0.01
x1 = 0.0932	1.03 ± 0.01
x1 = 0.1188	1.09 ± 0.011
x1 = 0.1559	1.186 ± 0.012
x1 = 0.1903	1.289 ± 0.013
x1 = 0.2322	1.413 ± 0.014
x1 = 0.2748	1.557 ± 0.015
x1 = 0.3127	1.691 ± 0.017
x1 = 0.3556	1.851 ± 0.018
x1 = 0.3911	2 ± 0.02
x1 = 0.4295	2.16 ± 0.021
x1 = 0.4585	2.288 ± 0.023
x1 = 0.4917	2.445 ± 0.024
x1 = 0.531	2.635 ± 0.026
x1 = 0.575	2.845 ± 0.029
x1 = 0.6181	3.066 ± 0.031
x1 = 0.666	3.31 ± 0.034
x1 = 0.7112	3.548 ± 0.037
x1 = 0.7734	3.894 ± 0.041
x1 = 0.8415	4.283 ± 0.045
x1 = 0.8983	4.615 ± 0.049
x1 = 0.929	4.805 ± 0.052
x1 = 0.9482	4.918 ± 0.053
x1 = 0.9696	5.061 ± 0.055
x2 = 0.0169	5.131 ± 0.055

CCCCOCCOCCO + ClC(Cl)Cl
298.15 K, 101.33 kPa
Details	viscosity [mPa·s]
x1 = 0.0036	0.538 ± 0.015
x1 = 0.013	0.559 ± 0.015
x1 = 0.0198	0.572 ± 0.016
x1 = 0.0347	0.607 ± 0.017
x1 = 0.0576	0.674 ± 0.018
x1 = 0.0854	0.755 ± 0.02
x1 = 0.1232	0.882 ± 0.023
x1 = 0.1802	1.118 ± 0.028
x1 = 0.2156	1.281 ± 0.031
x1 = 0.2883	1.65 ± 0.039
x1 = 0.3513	2.01 ± 0.047
x1 = 0.427	2.46 ± 0.057
x1 = 0.486	2.828 ± 0.065
x1 = 0.539	3.148 ± 0.072
x1 = 0.6168	3.591 ± 0.081
x1 = 0.6945	4.021 ± 0.091
x1 = 0.7358	4.19 ± 0.094
x1 = 0.7844	4.415 ± 0.099
x1 = 0.8159	4.545 ± 0.1
x1 = 0.859	4.758 ± 0.11
x1 = 0.9079	4.913 ± 0.11
x1 = 0.94	5.021 ± 0.11
x1 = 0.9514	5.04 ± 0.11
x1 = 0.9582	5.061 ± 0.11
x1 = 0.9656	5.083 ± 0.11
x2 = 0.0054	5.185 ± 0.11

Cc1cccc(C)c1 + ClC(Cl)Cl
298.15 K, 101 kPa
Details	viscosity [mPa·s]
x2 = 0.2254	0.5977 ± 0.0075
x2 = 0.4357	0.6026 ± 0.0076
x2 = 0.4615	0.6004 ± 0.0076
x2 = 0.5258	0.5981 ± 0.0075
x2 = 0.5786	0.5938 ± 0.0075
x2 = 0.6284	0.593 ± 0.0075
x2 = 0.6945	0.5876 ± 0.0074
x2 = 0.7272	0.5844 ± 0.0074

O=S1(=O)CCCC1 + ClCCCl
viscosity [mPa·s], 100 kPa
Details	x1 = 0.0168	x1 = 0.1062	x1 = 0.2045	x1 = 0.3091	x1 = 0.4077	x1 = 0.5125	x1 = 0.6483	x1 = 0.8007	x1 = 0.9708
303.15 K	0.8741 ± 0.023	1.693 ± 0.04	2.594 ± 0.06	3.559 ± 0.081	4.475 ± 0.1	5.452 ± 0.12	6.725 ± 0.14	8.157 ± 0.16	9.753 ± 0.19
308.15 K	0.8027 ± 0.022	1.515 ± 0.036	2.303 ± 0.054	3.149 ± 0.072	3.949 ± 0.089	4.803 ± 0.11	5.911 ± 0.13	7.157 ± 0.15	8.551 ± 0.17
313.15 K	0.7524 ± 0.021	1.384 ± 0.034	2.086 ± 0.049	2.837 ± 0.065	3.545 ± 0.08	4.3 ± 0.097	5.28 ± 0.12	6.382 ± 0.13	7.617 ± 0.15

CCCCOCCOCCO + ClCCl
298.15 K, 101.33 kPa
Details	viscosity [mPa·s]
x1 = 0.0047	0.418 ± 0.012
x1 = 0.012	0.433 ± 0.013
x1 = 0.02	0.448 ± 0.013
x1 = 0.0388	0.48 ± 0.014
x1 = 0.0685	0.56 ± 0.015
x1 = 0.1079	0.649 ± 0.017
x1 = 0.1533	0.78 ± 0.02
x1 = 0.1882	0.907 ± 0.023
x1 = 0.2206	1.028 ± 0.026
x1 = 0.2751	1.226 ± 0.03
x1 = 0.3166	1.409 ± 0.034
x1 = 0.3515	1.576 ± 0.038
x1 = 0.397	1.807 ± 0.043
x1 = 0.4383	2.028 ± 0.048
x1 = 0.4759	2.224 ± 0.052
x1 = 0.5118	2.425 ± 0.056
x1 = 0.5496	2.627 ± 0.061
x1 = 0.6026	2.965 ± 0.068
x1 = 0.6535	3.267 ± 0.074
x1 = 0.7124	3.628 ± 0.082
x1 = 0.7606	3.893 ± 0.088
x1 = 0.8051	4.163 ± 0.094
x1 = 0.854	4.458 ± 0.1
x1 = 0.9019	4.724 ± 0.11
x1 = 0.9342	4.893 ± 0.11
x1 = 0.9731	5.104 ± 0.11
